Measured values taken from US20220047556A1 (INSERM (Institut National de la Santé et de la Recherche …, priority 2018, published 2022).

Columns and labels:
Format in all cases: cell-based, human
[1] = test system: PD-1 expression in T cells; experiment: PD-1 mRNA levels in PMA/Io-activated T cells, real-time qPCR; settings: T cells incubated 24 h, FIG. 1H
Text: (H) PD-1 mRNA levels following PMA/Io stimulation of T cells, as assessed by Real-time qPCR. Data are represented as fold change to PMA/Io-activated cells assigned 1. […] Data represented as mean±SEM from 3 (H, J) and 2 (0) independent experiments.
Human colon carcinoma cell lines HT29 (microsatellite-instable (MSI)) and HCT116 (microsatellite-stable (MSS)) cells, BALB/c syngeneic colon carcinoma CT26 cell line, and human T cell lines Jurkat, J.RT3-T3.5 (JRT3), Myla, SeAx and HUT-78, were cultured in DMEM or RPMI 1640 complete media.
(§1) Activation of TCR signaling was performed either with phorbol myristate acetate (PMA) and Ionomycin (Io) or with plate-bound anti-CD3.

[2] = test system: PD-1 expression in T cells; experiment: PD-1 protein expression in PMA/Io-activated T cells, flow cytometry; settings: T cells incubated 24 h, FIGS. 1I and 1J
Experimental: as §1
Flow cytometry analyzed were performed on Single cell suspension of hPBMCs and T cells using BD Accuri C6 software, or Diva (BD Biosciences) and FlowJo 9.3.2 (TreeStar) softwares (flow cytometry facility of TBM Core).

NF-κB phosphorylation = experiment: phospho-NFκBp65 Western blot and densitometry in T cells after PMA/Io stimulation; settings: Sulconazole 2 μM, FIG. 1M
[3] = test system: JRT3 cells (TCR-activation marker CD69); experiment: JRT3 functional assay: CD69 in JRT3 cells co-cultured with EPCR-expressing HT29 cells; settings: 24 h, compared to JRT3 cells cultured alone, FIGS. 1N and 1O
Experimental: The Jurkat T cell line J.RT3-T3.5 (JRT3) stably expressing the human LES-γδ TCR (JRT3-LES) was incubated with the colon cancer cell line HT29 overexpressing the endothelial protein C receptor (HT29-EPCR) (34). The activation of JRT3-LES cells was evaluated by the expression of CD69.

PD-1 positive T cells = experiment: Immunofluorescence quantification of PD-1 positive T cells; settings: activated T cells treated 24 h, FIGS. 1K and 1L

## Clc1ccc(CSC(Cn2ccnc2)c2ccc(Cl)cc2Cl)cc1 (centres unmarked) [Sulconazole, 1-[2-[(4-chlorophenyl)methylsulfanyl]-2-(2,4-dichlorophenyl)ethyl]imidazole]
[1]
  PD-1 expression at the RNA level: repressed PD-1 expression
[2]
  PD-1 expression at the protein level: repressed PD-1 expression
NF-κB phosphorylation
  NF-κB phosphorylation after PMA/Io stimulation: inhibited
[3]
  CD69 expression and number of CD69 positive cells: increased in the absence or presence of Sulconazole
PD-1 positive T cells
  reduction of PD-1+ cells: 50%
